# Source: patent publication US20030199698A1, “Carbamic acid esters as inhibitors of factor xa” (priority 2000, published 2003)
# Columns and labels:
# [1] = molecular target: TF/VIIa (Homo sapiens, UniProt P08709); experiment: Inhibition of TF/VIIa; type: biochemical
# Description: The inhibition of factor VIIa by the compounds according to the invention and the measurement of the anticoagulant and antithrombotic activity can be determined by conventional in-vitro or in-vivo methods. A conventional method for the measurement of the inhibition of factor VIIa is described, for example, by H. F. Ronning et al. in Thrombosis Research 1996, 84, 73-81.
# [2] = molecular target: factor Xa, human (Homo sapiens, UniProt P00742); experiment: Inhibition of factor Xa; type: biochemical
# factor Xa, human, sequence (P00742 235-488 limits assumed): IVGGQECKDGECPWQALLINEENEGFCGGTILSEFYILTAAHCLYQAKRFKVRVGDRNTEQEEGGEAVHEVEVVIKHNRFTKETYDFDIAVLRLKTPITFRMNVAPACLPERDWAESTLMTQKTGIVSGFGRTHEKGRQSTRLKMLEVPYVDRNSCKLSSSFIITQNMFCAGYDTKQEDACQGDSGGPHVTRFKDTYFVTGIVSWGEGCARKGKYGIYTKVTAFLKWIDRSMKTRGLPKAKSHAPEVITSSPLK
# factor Xa, human, sequence (P00742 41-179 limits assumed): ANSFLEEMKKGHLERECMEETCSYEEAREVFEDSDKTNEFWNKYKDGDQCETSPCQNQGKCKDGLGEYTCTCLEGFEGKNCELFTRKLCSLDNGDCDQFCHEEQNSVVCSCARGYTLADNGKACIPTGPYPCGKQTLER
# Description: The inhibition of factor Xa by the compounds according to the invention and the measurement of the anticoagulant and antithrombotic activity can be determined by conventional in-vitro or in-vivo methods. A suitable method is described, for example, by J. Hauptmann et al. in Thrombosis and Haemostasis 1990, 63, 220-223.
# The inhibition of factor Xa can be measured, for example, by the method of T. Hara et al. in Thromb. Haemostas. 1994, 71, 314-319.
# TF/VIIa, sequence (P08709 213-466 limits assumed): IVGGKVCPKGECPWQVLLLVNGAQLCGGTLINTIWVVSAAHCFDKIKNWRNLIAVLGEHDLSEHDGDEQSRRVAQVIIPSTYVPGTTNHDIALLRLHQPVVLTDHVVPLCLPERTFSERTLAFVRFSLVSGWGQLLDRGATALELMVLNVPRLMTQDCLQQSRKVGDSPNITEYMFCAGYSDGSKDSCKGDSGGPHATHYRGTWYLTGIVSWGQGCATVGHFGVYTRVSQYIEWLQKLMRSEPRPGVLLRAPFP
# TF/VIIa, sequence (P08709 61-212 limits assumed): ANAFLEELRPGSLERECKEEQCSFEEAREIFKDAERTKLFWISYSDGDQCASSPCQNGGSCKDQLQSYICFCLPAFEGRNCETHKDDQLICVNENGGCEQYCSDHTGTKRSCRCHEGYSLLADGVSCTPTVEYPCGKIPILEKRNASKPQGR
# TF/VIIa, sequence (P13726 33-295 partner): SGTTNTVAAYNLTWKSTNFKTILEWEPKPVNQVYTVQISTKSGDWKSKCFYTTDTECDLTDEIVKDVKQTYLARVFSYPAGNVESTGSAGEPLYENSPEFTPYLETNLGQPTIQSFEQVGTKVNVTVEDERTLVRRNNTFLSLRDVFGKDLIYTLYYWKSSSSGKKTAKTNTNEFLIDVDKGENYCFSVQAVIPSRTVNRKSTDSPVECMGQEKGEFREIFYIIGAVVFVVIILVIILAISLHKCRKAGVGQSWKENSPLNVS
SMILES,melting point [°C],IC50 [1] [nM],IC50 [2] [nM]
"CCCN(Cc1cccc(C(=N)N)c1)C(=O)Oc1ccc(-c2ccccc2S(N)(=O)=O)cc1 [Example 2.3, 2′-aminosulfonylbiphenyl-4-yl (3-amidinobenzyl)propylcarbamate]",119 to 120,350,450
"CCCN(Cc1cccc(C(=N)N)c1)C(=O)Oc1ccc(-c2ccccc2S(C)(=O)=O)cc1 [Example 3.3, 2′-methylsulfonylbiphenyl-4-yl (3-amidinobenzyl)propylcarbamate]",,130,340
